The results in this text go back to US20240269139A1, “COMPOUNDS FOR TARGETED PROTEIN DEGRADATION OF KINASES” (DANA-FARBER CANCER INSTITUTE, INC., priority 2020, published 2024).

Read-outs that look alike come from different tables or passages of the source.

Assay type in all cases: cell-based
The target of experiment [1] is protein kinases (human kinome) (Homo sapiens, UniProt P11802).
The target of experiment [2] is protein kinases (human kinome) (Homo sapiens, UniProt Q2M2I8).
Experiment [3] addresses protein kinases (human kinome) (Homo sapiens, UniProt P30291).
In experiment [4] the target is T1, protein kinases (human kinome) (Homo sapiens, UniProt O14976).
T1 sequence (O14976 1-1311): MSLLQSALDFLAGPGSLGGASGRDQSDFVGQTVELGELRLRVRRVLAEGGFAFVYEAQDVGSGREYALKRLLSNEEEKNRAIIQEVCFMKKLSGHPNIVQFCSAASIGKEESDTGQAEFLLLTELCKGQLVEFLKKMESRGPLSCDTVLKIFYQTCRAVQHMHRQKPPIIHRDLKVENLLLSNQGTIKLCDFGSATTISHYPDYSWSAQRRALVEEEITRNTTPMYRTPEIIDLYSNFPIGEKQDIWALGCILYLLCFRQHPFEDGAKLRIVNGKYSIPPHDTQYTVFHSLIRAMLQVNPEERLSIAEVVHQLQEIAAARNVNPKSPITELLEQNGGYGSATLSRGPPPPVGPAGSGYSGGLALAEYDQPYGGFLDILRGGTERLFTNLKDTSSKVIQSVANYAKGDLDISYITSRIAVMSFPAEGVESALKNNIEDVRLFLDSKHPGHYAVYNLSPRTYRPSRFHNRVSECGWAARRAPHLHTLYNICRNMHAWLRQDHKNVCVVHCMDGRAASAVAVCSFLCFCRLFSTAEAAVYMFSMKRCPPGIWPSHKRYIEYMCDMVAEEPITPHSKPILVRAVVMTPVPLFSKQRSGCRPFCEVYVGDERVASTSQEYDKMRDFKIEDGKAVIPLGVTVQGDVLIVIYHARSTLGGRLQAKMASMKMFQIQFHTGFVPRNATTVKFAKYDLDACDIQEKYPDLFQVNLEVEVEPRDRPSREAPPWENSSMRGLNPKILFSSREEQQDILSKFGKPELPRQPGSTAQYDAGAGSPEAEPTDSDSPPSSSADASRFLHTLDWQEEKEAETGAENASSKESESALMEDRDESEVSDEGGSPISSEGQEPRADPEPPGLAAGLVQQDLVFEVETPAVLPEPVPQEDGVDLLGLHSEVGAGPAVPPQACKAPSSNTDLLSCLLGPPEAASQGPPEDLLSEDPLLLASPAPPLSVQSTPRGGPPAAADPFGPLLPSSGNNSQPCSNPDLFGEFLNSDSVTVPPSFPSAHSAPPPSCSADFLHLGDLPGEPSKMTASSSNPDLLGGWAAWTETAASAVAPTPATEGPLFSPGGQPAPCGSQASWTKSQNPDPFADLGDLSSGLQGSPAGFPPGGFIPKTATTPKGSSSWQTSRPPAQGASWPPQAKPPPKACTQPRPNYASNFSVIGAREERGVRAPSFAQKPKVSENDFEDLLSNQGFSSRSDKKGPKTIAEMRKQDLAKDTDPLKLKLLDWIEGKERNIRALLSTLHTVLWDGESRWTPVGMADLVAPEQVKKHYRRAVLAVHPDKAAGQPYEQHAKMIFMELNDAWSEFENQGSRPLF
As to conditions: for logFC of GAK (O14976): Experiment wp016, down; for logFC GAK: GAK (O14976), direction down, experiment wp016.

Experiment [5] addresses protein kinases (human kinome) (Homo sapiens, UniProt P16591). As to conditions: for logFC of FER (P16591-1): down; for logFC of FER: FER P16591-1.
Experiment [6] addresses protein kinases (human kinome) (Homo sapiens, UniProt P51451). As to conditions: for logFC of BLK: BLK P51451, experiment wp016; for logFC of BLK (P51451): down; for logFC BLK: BLK (P51451), direction down.
The mark [7] stands for this setting: AAK1 (Q2M218-1), experiment wp016, down.
Where [8] appears, read: AAK1, accession Q2M218-1, experiment wp016, direction of change down.

protein kinases (human kinome) (Homo sapiens, UniProt P30291), sequence (P30291 whole entry): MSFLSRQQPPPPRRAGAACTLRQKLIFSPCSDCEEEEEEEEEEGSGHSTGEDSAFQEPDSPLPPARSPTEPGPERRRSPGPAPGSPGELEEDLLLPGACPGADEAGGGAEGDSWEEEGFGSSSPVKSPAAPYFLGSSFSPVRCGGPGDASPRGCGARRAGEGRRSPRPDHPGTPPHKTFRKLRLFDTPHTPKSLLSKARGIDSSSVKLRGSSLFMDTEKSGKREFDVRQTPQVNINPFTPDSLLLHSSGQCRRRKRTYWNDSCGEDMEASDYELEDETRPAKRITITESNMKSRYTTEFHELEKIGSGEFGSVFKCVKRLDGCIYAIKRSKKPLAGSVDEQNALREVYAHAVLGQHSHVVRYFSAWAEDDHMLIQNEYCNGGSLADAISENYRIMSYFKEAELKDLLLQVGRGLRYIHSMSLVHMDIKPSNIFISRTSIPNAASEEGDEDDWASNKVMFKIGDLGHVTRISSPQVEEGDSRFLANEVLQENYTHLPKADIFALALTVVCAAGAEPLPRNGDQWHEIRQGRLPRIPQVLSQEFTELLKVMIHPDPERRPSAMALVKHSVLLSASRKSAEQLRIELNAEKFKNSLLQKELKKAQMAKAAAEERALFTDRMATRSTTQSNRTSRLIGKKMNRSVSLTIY
protein kinases (human kinome) (Homo sapiens, UniProt P11802), sequence (P11802 whole entry): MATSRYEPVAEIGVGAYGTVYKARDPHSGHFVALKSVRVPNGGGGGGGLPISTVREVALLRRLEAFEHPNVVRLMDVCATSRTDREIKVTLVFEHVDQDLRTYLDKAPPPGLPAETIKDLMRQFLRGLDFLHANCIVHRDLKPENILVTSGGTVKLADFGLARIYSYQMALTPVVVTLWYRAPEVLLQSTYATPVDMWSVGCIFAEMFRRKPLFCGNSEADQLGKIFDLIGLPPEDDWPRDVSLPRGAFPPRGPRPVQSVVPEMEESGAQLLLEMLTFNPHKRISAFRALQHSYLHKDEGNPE
protein kinases (human kinome) (Homo sapiens, UniProt P16591), sequence (P16591 whole entry): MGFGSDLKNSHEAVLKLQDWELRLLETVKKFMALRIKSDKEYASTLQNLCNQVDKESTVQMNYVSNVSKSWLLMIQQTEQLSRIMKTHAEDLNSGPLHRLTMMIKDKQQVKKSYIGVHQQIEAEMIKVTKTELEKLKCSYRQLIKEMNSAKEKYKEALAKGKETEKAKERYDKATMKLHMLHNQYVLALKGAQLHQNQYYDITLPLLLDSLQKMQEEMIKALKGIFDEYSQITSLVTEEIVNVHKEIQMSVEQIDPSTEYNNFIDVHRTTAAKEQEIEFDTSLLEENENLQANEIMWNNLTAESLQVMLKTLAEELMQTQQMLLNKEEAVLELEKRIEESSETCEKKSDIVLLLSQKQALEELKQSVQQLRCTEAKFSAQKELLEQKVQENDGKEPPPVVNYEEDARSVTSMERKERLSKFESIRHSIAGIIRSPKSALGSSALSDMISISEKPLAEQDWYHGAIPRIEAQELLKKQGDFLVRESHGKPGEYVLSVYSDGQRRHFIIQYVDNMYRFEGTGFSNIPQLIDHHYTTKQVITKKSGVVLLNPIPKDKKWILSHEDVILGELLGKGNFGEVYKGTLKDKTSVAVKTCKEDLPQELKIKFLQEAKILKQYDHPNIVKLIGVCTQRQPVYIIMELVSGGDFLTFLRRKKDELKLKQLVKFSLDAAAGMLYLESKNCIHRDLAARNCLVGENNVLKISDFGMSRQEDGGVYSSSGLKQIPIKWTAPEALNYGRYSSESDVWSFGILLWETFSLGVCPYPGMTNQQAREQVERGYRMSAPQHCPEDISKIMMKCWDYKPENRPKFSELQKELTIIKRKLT
protein kinases (human kinome) (Homo sapiens, UniProt Q2M2I8), sequence (Q2M2I8 whole entry): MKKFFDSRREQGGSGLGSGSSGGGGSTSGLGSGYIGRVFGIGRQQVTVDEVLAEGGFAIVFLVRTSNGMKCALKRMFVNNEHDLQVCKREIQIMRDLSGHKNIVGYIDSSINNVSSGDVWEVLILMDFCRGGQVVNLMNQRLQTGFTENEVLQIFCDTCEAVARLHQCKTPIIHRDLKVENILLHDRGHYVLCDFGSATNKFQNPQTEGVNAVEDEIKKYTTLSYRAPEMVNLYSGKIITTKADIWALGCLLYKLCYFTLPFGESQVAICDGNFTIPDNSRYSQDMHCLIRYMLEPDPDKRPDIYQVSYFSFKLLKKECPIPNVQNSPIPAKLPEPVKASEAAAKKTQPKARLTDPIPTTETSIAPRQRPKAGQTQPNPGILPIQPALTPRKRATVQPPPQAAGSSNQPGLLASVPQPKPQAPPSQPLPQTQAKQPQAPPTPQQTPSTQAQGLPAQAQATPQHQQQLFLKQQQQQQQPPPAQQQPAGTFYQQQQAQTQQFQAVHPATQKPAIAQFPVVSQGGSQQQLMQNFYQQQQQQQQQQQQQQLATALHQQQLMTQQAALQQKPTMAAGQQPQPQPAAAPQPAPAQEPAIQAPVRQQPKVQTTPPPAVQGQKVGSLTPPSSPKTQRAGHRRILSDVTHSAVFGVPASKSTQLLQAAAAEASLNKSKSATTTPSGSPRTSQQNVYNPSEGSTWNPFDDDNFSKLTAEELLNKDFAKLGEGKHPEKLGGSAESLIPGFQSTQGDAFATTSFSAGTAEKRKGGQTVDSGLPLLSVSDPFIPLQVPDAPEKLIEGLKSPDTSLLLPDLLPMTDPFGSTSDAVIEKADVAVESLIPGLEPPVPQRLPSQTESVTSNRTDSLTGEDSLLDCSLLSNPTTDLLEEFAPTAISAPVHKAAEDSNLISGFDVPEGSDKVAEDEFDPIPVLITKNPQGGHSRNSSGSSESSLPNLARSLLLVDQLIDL
protein kinases (human kinome) (Homo sapiens, UniProt P51451), sequence (P51451 whole entry): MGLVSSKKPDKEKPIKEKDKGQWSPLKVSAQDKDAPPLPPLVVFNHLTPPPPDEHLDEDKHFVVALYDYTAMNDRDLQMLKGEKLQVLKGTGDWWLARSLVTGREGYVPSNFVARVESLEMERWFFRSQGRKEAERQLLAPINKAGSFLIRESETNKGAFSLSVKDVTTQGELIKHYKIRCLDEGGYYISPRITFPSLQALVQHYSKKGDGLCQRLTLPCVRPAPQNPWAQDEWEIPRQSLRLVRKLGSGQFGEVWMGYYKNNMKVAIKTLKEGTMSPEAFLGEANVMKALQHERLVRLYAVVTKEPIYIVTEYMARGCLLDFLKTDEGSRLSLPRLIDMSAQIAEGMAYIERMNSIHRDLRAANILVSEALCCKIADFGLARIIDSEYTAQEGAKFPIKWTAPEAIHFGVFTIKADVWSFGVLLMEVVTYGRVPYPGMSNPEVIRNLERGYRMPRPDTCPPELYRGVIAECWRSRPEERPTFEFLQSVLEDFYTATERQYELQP

As to `CC(C)S(=O)(=O)c1ccccc1Nc1nc(Nc2ccc(N3CCN(CCOCCNC(=O)CNc4ccc5c(c4)C(=O)N(C4CCC(=O)NC4=O)C5=O)CC3)cc2)ncc1Cl` (stereo not shown) [SK.3.93], the “logFC CDK4 (P11802)” value in experiment [1] (experiment wp016) is on record as −1.305. Besides, the “logFC AAK1” value in experiment [2] (setting [7]) and in experiment [2] (setting [8]) was −1.588 each time. The “logFC WEE1 (P30291-1)” value in experiment [3] (experiment wp016) is listed as −1.176. The “logFC of GAK (O14976)” value in experiment [4] is −0.4334. Besides, the “logFC GAK” value in experiment [4] is given as −0.4334. For the same compound, in experiment [5] (Experiment wp016), the “logFC of FER (P16591-1)” value is listed as −2.64. In experiment [5] (experiment wp016), the “logFC of FER” value was −2.64. The “logFC of BLK” value in experiment [6] is on record as −1.502. In experiment [6] (Experiment wp016), the “logFC of BLK (P51451)” value was −1.502.
On to `CC(C)S(=O)(=O)c1ccccc1Nc1nc(Nc2ccc(N3CCN(CCOCCOCCNC(=O)CNc4cccc5c4C(=O)N(C4CCC(=O)NC4=O)C5=O)CC3)cc2)ncc1Cl` (stereo not shown) [TL12.186], for which the results for the “logFC CDK4 (P11802)” value in experiment [1] (experiment wp016), in experiment [1] (experiment wp131) and in experiment [1] (experiment wp137) were −0.9166, −1.186 and −1.173, respectively. In addition, the “logFC AAK1” value in experiment [2] (setting [7]) is on record as −1.338; in experiment [2] (AAK1 (Q2M218-1), experiment wp131, down) it was −1.52; in experiment [2] (AAK1 (Q2M218-1), experiment wp137, down), −1.31; in experiment [2] (setting [8]), −1.338; in experiment [2] (AAK1, accession Q2M218-1, experiment wp131, direction of change down), −1.52; in experiment [2] (AAK1, accession Q2M218-1, experiment wp137, direction of change down), −1.31. Also, the “logFC of WEE1” value in experiment [3] (WEE1 P30291-1, experiment wp137) is −2.511. Also, the entries for the “logFC WEE1 (P30291-1)” value in experiment [3] (experiment wp016), in experiment [3] (experiment wp131) and in experiment [3] (experiment wp137) were −1.514, −2.574 and −2.511, respectively. Further, in experiment [4], the “logFC of GAK (O14976)” value is −0.3354. For the same compound, in experiment [4], the “logFC GAK” value is recorded as −0.3354. Moreover, the “logFC of FER (P16591-1)” value in experiment [5] (Experiment wp016) was −2.727; in experiment [5] (Experiment wp131), −2.583; in experiment [5] (Experiment wp137), −2.329. Moreover, the results for the “logFC of FER” value in experiment [5] (experiment wp016), in experiment [5] (experiment wp131) and in experiment [5] (experiment wp137) were −2.727, −2.583 and −2.329, respectively. The “logFC BLK” value in experiment [6] (experiment wp131) is −2.497; in experiment [6] (experiment wp137) it was −2.115. In experiment [6], the “logFC of BLK” value was −1.475. For the same compound, the “logFC of BLK (P51451)” value in experiment [6] (Experiment wp016) is −1.475; in experiment [6] (Experiment wp131), −2.497; in experiment [6] (Experiment wp137) it was −2.115.
